By LOAEL is commonly meant the lowest dose or exposure tested at which an adverse effect was seen. A word on the NOAEL: it is the highest dose or exposure tested at which no adverse effect was seen.

SMILES strings stand for the structures.

Data set [1] deals with rat. The settings on record: Prenatal developmental toxicity study; sprague dawley; Oral; Gavage/Intubation; dose end: 19 GD; group: maternal; systemic / in life observation / body weight / body weight gain + systemic / in life observation / food consumption / food consumption + ….
In data set [2] the test system is rat. The settings on record: Peri- and post-natal toxicity study (Segment III), sprague dawley, Oral, Gavage/Intubation, dose end: 40 PND.
Data set [3] deals with rat. The settings on record: Combined chronic toxicity/carcinogenicity, sprague dawley, Oral, Feed, dose end: 24 month, group: systemic.
Data set [4] has as its system rat. The settings on record: Chronic toxicity, Sprague-Dawley, Oral, Feed, dose end: 104 week, group: systemic.
In the next data set the test system is dog. The settings on record: Subchronic oral toxicity in nonrodent, beagle, Feed, dose end: 26 week, group: systemic, systemic / in life observation / clinical signs / chewing of extremities + systemic / in life observation / clinical signs / muscle ….
Data set [5] relates to mouse. The settings on record: Combined chronic toxicity/carcinogenicity, other, Oral, Feed, dose end: 91 week, group: systemic.
The test system of data set [6] is mouse. The settings on record: Subchronic oral toxicity in rodents, b6c3f1, Feed, dose end: 13 week, group: systemic.
For data set [7], the system named is mouse. The settings on record: Carcinogenicity; b6c3f1; Oral; Feed; dose end: 104 week; group: systemic; systemic / in life observation / body weight / body weight.
In data set [8] the test system is rat. The settings on record: Carcinogenicity; fischer; Oral; Feed; dose end: 104 week; group: systemic; systemic / in life observation / body weight / body weight + systemic / pathology microscopic / kidney / cytomegaly + systemic / pathology ….
Data set [9] concerns rat. The settings on record: Subchronic oral toxicity in rodents, fischer, Feed, dose end: 13 week, group: systemic.
Data set [10] has as its system rat. The settings on record: Prenatal developmental toxicity study, sprague dawley, Oral, Gavage/Intubation, dose end: 15 GD.
Data set [11] relates to mouse. The settings on record: Carcinogenicity, cd1, Oral, Feed, dose end: 2 year, group: systemic.
Data set [12] relates to rat. The settings on record: Combined chronic toxicity/carcinogenicity, sprague dawley, Oral, Feed, dose end: 24 month, group: systemic. This is another data set of the same source.
Data set [13] relates to mouse. The settings on record: Combined chronic toxicity/carcinogenicity, other, Oral, Feed, dose end: 80 week, group: systemic.
The subject of data set [14] is rat. The settings on record: Combined chronic toxicity/carcinogenicity; wistar; Oral; Feed; dose end: 2 year; group: systemic; systemic / in life observation / body weight / body weight gain + systemic / in life observation / food consumption / food consumption + ….
The subject of data set [15] is rat. The settings on record: Subchronic oral toxicity in rodents, fischer, Gavage/Intubation, dose end: 13 week, group: systemic, systemic / in life observation / body weight / body weight.
Data set [16] relates to mouse. The settings on record: Carcinogenicity, b6c3f1, Oral, Gavage/Intubation, dose end: 2 year, group: systemic.
In data set [17] the test system is mouse. The settings on record: Subchronic oral toxicity in rodents, b6c3f1, Gavage/Intubation, dose end: 13 week, group: systemic.
Where [18] appears, read: group: maternal, reproductive / reproductive performance / estrous cycle / corpora lutea.
The mark [19] stands for this setting: group: parental, systemic / organ weight / liver / absolute + systemic / organ weight / thyroid gland / absolute + systemic / pathology microscopic / ovary….
Setting [20] is: group: parental, systemic / organ weight / liver / absolute + systemic / pathology microscopic / ovary / follicle count + systemic / pathology microscopic / ….
The mark [21] stands for this setting: systemic / in life observation / body weight / body weight.
[22] abbreviates: systemic / in life observation / body weight / body weight + systemic / clinical chemistry / alpha-2 globulin / alpha-2 globulin + systemic….
Where [23] appears, read: systemic / in life observation / body weight / body weight + systemic / organ weight / brain / relative to body weight + systemic / organ ….
Where [24] appears, read: systemic / pathology microscopic / liver / granuloma + systemic / pathology microscopic / lymph node / granuloma + systemic / clinical ….
Setting [25] is: systemic / pathology microscopic / liver / granuloma + systemic / pathology microscopic / lymph node / granuloma + systemic / hematology / ….
Setting [26] is: systemic / in life observation / food consumption / food consumption.
Setting [27] is: group: developmental, developmental / developmental malformation / bone / incomplete ossification + developmental / developmental malformation / interparietal / ….
The mark [28] stands for this setting: group: maternal, systemic / in life observation / body weight / body weight + systemic / in life observation / food consumption / food consumption.
[29] abbreviates: group: maternal, systemic / in life observation / body weight / body weight + systemic / in life observation / food consumption / food consumption + systemic….
The mark [30] stands for this setting: systemic / pathology microscopic / heart / degeneration.
The mark [31] stands for this setting: systemic / pathology microscopic / heart / degeneration + systemic / pathology microscopic / liver / hemosiderin laden macrophages.
[32] abbreviates: systemic / pathology microscopic / mammary gland / adenocarcinoma.
Where [33] appears, read: systemic / in life observation / body weight / body weight + systemic / organ weight / kidney / relative to body weight + systemic / organ ….
Where [34] appears, read: systemic / organ weight / liver / relative to body weight.
Setting [35] is: systemic / pathology microscopic / liver / vacuolization + systemic / pathology microscopic / thyroid gland / hyperplasia.
[36] abbreviates: systemic / pathology microscopic / liver / vacuolization + systemic / pathology microscopic / thyroid gland / hyperplasia + systemic / ….
[37] abbreviates: systemic / pathology microscopic / stomach / inflammation.
[38] abbreviates: systemic / pathology microscopic / stomach / inflammation + systemic / in life observation / body weight / body weight + systemic / ….

In the case of `CCCCOC(=O)c1ccc(O)cc1` [Butylparaben], in the data set with rat [1], the LEL is 1000 mg/kg/day, the LOAEL was above 1000 mg/kg/day, the NEL stood at 100 mg/kg/day and the NOAEL is at least 1000 mg/kg/day. In the data set with rat [2] (setting [18]), this compound had an LEL of 62.5 mg/kg/day, an LOAEL above 1000 mg/kg/day, an NEL below 62.5 mg/kg/day and an NOAEL of at least 1000 mg/kg/day. Also, in the data set on rat [2] (setting [19]), the LOAEL is above 1000 mg/kg/day and the NOAEL was at least 1000 mg/kg/day. In addition, in the data set with rat [2] (setting [20]), the LEL was 62.5 mg/kg/day and the NEL is below 62.5 mg/kg/day.

For the compound `CC(C)[C@@H](C(=O)O[C@@H](C#N)c1cccc(Oc2ccccc2)c1)c1ccc(Cl)cc1` [Fenvalerate], the LEL in the data set on rat [3] (setting [21]) turned out to be 1.25 mg/kg/day; in the data set with rat [4] (setting [23]) it was 50 mg/kg/day; with dog, 6.25 mg/kg/day; in the data set with mouse [5] (setting [25]), 15 mg/kg/day. Also, the NEL in the data set with rat [3] (systemic / in life observation / body weight / body weight + systemic / clinical chemistry / alpha-2 globulin / alpha-2 globulin) was 0.25 mg/kg/day; with rat [4] (setting [23]), below 50 mg/kg/day; in the data set with dog, below 6.25 mg/kg/day; in the data set with mouse [5] (setting [24]), 4.5 mg/kg/day. Further, the LOAEL in the data set on rat [3] (setting [22]) was above 25 mg/kg/day; in the data set on rat [4] (setting [21]) it was 50 mg/kg/day; in the data set on dog, 6.25 mg/kg/day; with mouse [5] (setting [25]), 15 mg/kg/day. For the same compound, the NOAEL is at least 25 mg/kg/day in the data set on rat [3] (setting [22]), below 50 mg/kg/day in the data set with rat [4] (setting [21]), below 6.25 mg/kg/day in the data set on dog and 4.5 mg/kg/day in the data set with mouse [5] (setting [24]).

For `CN(C)C(=O)Nc1ccc(Cl)cc1` [Monuron], the LEL in the data set on mouse [6] (setting [21]) is 450 mg/kg/day; in the data set on mouse [7], 750 mg/kg/day; in the data set with rat [8], 37.5 mg/kg/day; in the data set with rat [9] (setting [26]), 37.5 mg/kg/day. Besides, the lowest observed adverse effect level (LOAEL) in the data set with mouse [6] (setting [21]) was found to be 1800 mg/kg/day; with mouse [7], 750 mg/kg/day; in the data set on rat [8], 75 mg/kg/day; with rat [9] (setting [21]), 75 mg/kg/day. Moreover, the NEL in the data set with mouse [6] (setting [21]) is below 450 mg/kg/day; with mouse [7], below 750 mg/kg/day; with rat [8], below 37.5 mg/kg/day; in the data set on rat [9] (setting [26]), below 37.5 mg/kg/day. Moreover, the NOAEL in the data set on mouse [6] (systemic / in life observation / body weight / body weight + systemic / in life observation / mortality / mortality + systemic / pathology …) was 900 mg/kg/day; with mouse [7], below 750 mg/kg/day; in the data set with rat [8], 37.5 mg/kg/day; with rat [9] (systemic / in life observation / body weight / body weight + systemic / in life observation / food consumption / food consumption + systemic…), 37.5 mg/kg/day.

With `CC(C)Nc1nc(Cl)nc(NC(C)C)n1` [Propazine], the LOAEL was 100 mg/kg/day with rat [10] (setting [27]), 100 mg/kg/day in the data set on rat [10] (setting [28]), 450 mg/kg/day in the data set on mouse [11] (setting [31]) and 51 mg/kg/day in the data set with rat [12] (setting [21]). The NEL is 10 mg/kg/day in the data set on rat [10] (setting [27]), 10 mg/kg/day in the data set on rat [10] (setting [29]), 150 mg/kg/day with mouse [11] (setting [30]) and below 0.2 mg/kg/day in the data set with rat [12] (setting [32]). Besides, the NOAEL in the data set on rat [10] (setting [27]) came out at 10 mg/kg/day; in the data set on rat [10] (setting [29]) it was 10 mg/kg/day; in the data set on mouse [11] (setting [30]), 150 mg/kg/day; in the data set with rat [12] (systemic / in life observation / body weight / body weight + systemic / in life observation / body weight / body weight gain), 5.2 mg/kg/day. The LEL amounted to 100 mg/kg/day in the data set with rat [10] (group: developmental, developmental / developmental malformation / interparietal / incomplete ossification); 100 mg/kg/day in the data set with rat [10] (setting [28]); 450 mg/kg/day with mouse [11] (setting [31]); 0.2 mg/kg/day in the data set with rat [12] (setting [32]).

`C/C=C/C=C/C(=O)O` [Sorbic acid]: in the data set on mouse [13] (setting [33]), the LOAEL is above 15000 mg/kg/day and the NOAEL is at least 15000 mg/kg/day. Further, in the data set on mouse [13] (setting [34]), the LEL was found to be 1500 mg/kg/day and the NEL is below 1500 mg/kg/day. Further, in the data set on rat [14], the LEL amounted to 5000 mg/kg/day, the LOAEL was above 5000 mg/kg/day, the NEL was 750 mg/kg/day and the NOAEL was at least 5000 mg/kg/day.

Consider `CCCCC(CC)COP(=O)(OCC(CC)CCCC)OCC(CC)CCCC` (stereo not given) [Tris(2-ethylhexyl) phosphate], for which the LEL in the data set with rat [15] came out at 2000 mg/kg/day; with mouse [16] (setting [35]) it was 500 mg/kg/day; in the data set with mouse [17] (setting [37]), 500 mg/kg/day. In addition, the LOAEL with rat [15] is 2000 mg/kg/day; in the data set with mouse [16] (setting [36]) it was above 1000 mg/kg/day; with mouse [17] (setting [38]), 8000 mg/kg/day. For the same compound, the NEL in the data set on rat [15] is 1000 mg/kg/day; with mouse [16] (setting [35]), below 500 mg/kg/day; in the data set with mouse [17] (setting [37]), below 500 mg/kg/day. For the same compound, the NOAEL is 1000 mg/kg/day in the data set on rat [15], at least 1000 mg/kg/day with mouse [16] (setting [36]) and 4000 mg/kg/day with mouse [17] (setting [38]).

These data come from EPA's ToxRefDB 2.
